Results reported in patent publication US20060199789A1, “medical composition” (Kyowa Hakko Kogyo Co., Ltd., priority 2003, published 2006).

What was measured:
eosinophils in BALF = test: Antigen-induced respiratory eosinophil infiltration in rat (BALF); assay type: in vivo, BN rats; details: Compound (I) 30 μg/rat, budesonide 10 μg/rat; for Inhibition ratio (number of eosinophils) / Number of eosinophils: OVA-sensitized BN rats, intrabronchial 30 min before antigen challenge, BAL 24 h after; for Number of eosinophils: mean±standard error
Experimental: (§1) Inhibitory Effect of Combined Administration of Compound (I) and Steroid Agent on Antigen-Induced Respiratory Eosinophil and Neutrophil Infiltration in Rat
(§2) The test was conducted according to a known method (Pulmonary Pharmacology, vol. 8, pp. 83-89 (1995)).
(§3) In the test, 6-week-old male BN rats (Charles River Japan) were used. The rats were placed in aluminum cages each containing 5 to 6 rats in a breeding room at room temperature (19° C. to 25° C.) and a humidity of 30% to 70% under illumination for 12 hours a day (7 a.m. to 7 p.m.) and bred by free intake of commercially available feeds and water.
(§4) A preparation (Compound (I)-lactose preparation) containing 5 mg of lactose (produced by DVM Corporation) to 1 mg of Compound (I) was prepared, and a suspension for administering Compound (I) was prepared by suspending the Compound (I)-lactose preparation in a 0.125 wt/vol % tyloxapol aqueous solution (ALEVAIRE: registered trade mark, produced by Azwell Inc.) so that the concentration of Compound (I) was 150 μg/mL. Also, a suspension for administering budesonide was prepared by suspending lactose and budesonide (manufactured by Sigma Corporation) in a 0.125 wt/vol % tyloxapol aqueous solution so that the concentrations of lactose and budesonide were 750 μg/mL and 50 μg/mL, respectively. Furthermore, a suspension for combined administration was prepared by suspending budesonide and the Compound (I)-lactose preparation prepared as described above in a 0.125 wt/vol % tyloxapol aqueous solution so that the concentrations of budesonide and Compound (I) were 50 μg/mL and 150 μg/mL, respectively. On the other hand, a solvent for administration was prepared by dissolving lactose in a 0.125 wt/vol % tyloxapol aqueous solution so that the concentration was 7.5 mg/mL.
The rats were subcutaneously administered with 1 mL of a suspension of 1 mg of ovalbumin (OVA, manufactured by Sigma Co.) and 200 mg of aluminum hydroxide (manufactured by Wako Pure Chemicals Industries, Ltd.) suspended in 1 mL of physiological saline (manufactured by Otsuka Pharmaceutical Co., Ltd.). Then, 0.5 mL of a suspension of killed Bordetella pertussis cells (2×10^10 cells/1 mL physiological saline, manufactured by Kaken Pharmaceutical Co., Ltd.) was intraperitoneally administered to perform active sensitization. Fourteen days after the active sensitization, the rats were placed in a plastic chamber (30×50×30 cm), and an 1 wt/vol % OVA physiological saline solution was nebulized for 10 minutes using an ultrasonic nebulizer (manufactured by Omron Corporation) to perform antigen challenge. Thirty minutes before the antigen-challenge, 100 μL of each of the suspensions for administration prepared as described above was intrabronchially administered to each of the right and left bronchi, i.e., administered in a total of 200 μL (medicine-administered group). Similarly, thirty minutes before the antigen challenge, a group which the solvent for administration was intrabronchially administered (solvent-administered group) was prepared. Also, a group which the solvent for administration was intrabronchially administered and a physiological saline was nebulized instead of the 1 wt/vol % OVA physiological saline solution (physiological saline-administered group) was prepared. […]
(§5) The total number of the leukocytes in BALF was measured with an automatic leukocyte counter (manufactured by Nihon Kohden Corporation). […]

neutrophils in BALF = test: Antigen-induced respiratory neutrophil infiltration in rat (BALF); assay type: in vivo, BN rats; details: Compound (I) 30 μg/rat, budesonide 10 μg/rat; for Number of neutrophils: mean±standard error
Experimental: as §1, §2, §3, §4
The rats were subcutaneously administered with 1 mL of a suspension of 1 mg of ovalbumin (OVA, manufactured by Sigma Co.) and 200 mg of aluminum hydroxide (manufactured by Wako Pure Chemicals Industries, Ltd.) suspended in 1 mL of physiological saline (manufactured by Otsuka Pharmaceutical Co., Ltd.). Then, 0.5 mL of a suspension of killed Bordetella pertussis cells (2×10^10 cells/1 mL physiological saline, manufactured by Kaken Pharmaceutical Co., Ltd.) was intraperitoneally administered to perform active sensitization. Fourteen days after the active sensitization, the rats were placed in a plastic chamber (30×50×30 cm), and an 1 wt/vol % OVA physiological saline solution was nebulized for 10 minutes using an ultrasonic nebulizer (manufactured by Omron Corporation) to perform antigen challenge. […]
as §5

[1] = OVA-sensitized BN rats, intrabronchial 30 min before antigen challenge, BAL 24 h after

SMILES	Inhibition ratio (number of eosinophils) (eosinophils in BALF) [%]	Number of eosinophils (eosinophils in BALF)	Number of neutrophils (neutrophils in BALF; [1])	Inhibitory effect against increases in the number of eosinophils in BALF (in words) (eosinophils in BALF; sole or combined)	Effect on the number of neutrophils in BALF (in words) (neutrophils in BALF; sole or combined)	Inhibition ratio (number of neutrophils) (neutrophils in BALF; OVA-sensitized BN rats, intrabronchial 30 min before antigen challenge, BAL 24 h after, N.E. = No effect) [%]
CCCC1O[C@@H]2C[C@H]3[C@@H]4CCC5=CC(=O)C=C[C@]5(C)[C@H]4[C@@H](O)C[C@]3(C)[C@]2(C(=O)CO)O1 (stereo partly drawn) [Budesonide, budesonide, reference compound]	54	0.26 ± 0.06 10^6/BALF	2.50 ± 0.31 10^6/BALF			
COc1ccc(C(=O)Cc2c(Cl)cncc2Cl)c2c1OC1(CCCC1)O2 [Compound (I), 7-[2-(3,5-dichloro-4-pyridyl)-1-oxoethyl]-4-methoxy-spiro[1,3-benzodioxol-2,1′-cyclopentane]]	54	0.26 ± 0.08 10^6/BALF	2.28 ± 0.27 10^6/BALF	inhibitory effect against increases in the number of eosinophils was exhibited	not significantly affected	3
